Reference: patent publication US12037324B2, “Biarylmethyl heterocycles” (Université de Montréal, priority 2016, dated 2024)

Key:
AGTR1 [1] = molecular target: T1, AGTR1 (Homo sapiens, UniProt P30556); assay: DiscoveRx β-arrestin2 recruitment assay (enzyme complementation, Pathunter CHO-K1 AGTR1 β-arrestin cell line); assay type: cell-based; details: DiscoveRx β-arrestin2 recruitment; for DiscoveRx β-arrestin2 Ymax (%): maximal response
T1 construct: host or cells: Pathunter CHO-K1 AGTR1 β-arrestin cell line (CHO-K1)
T1 sequence (P30556 1-359): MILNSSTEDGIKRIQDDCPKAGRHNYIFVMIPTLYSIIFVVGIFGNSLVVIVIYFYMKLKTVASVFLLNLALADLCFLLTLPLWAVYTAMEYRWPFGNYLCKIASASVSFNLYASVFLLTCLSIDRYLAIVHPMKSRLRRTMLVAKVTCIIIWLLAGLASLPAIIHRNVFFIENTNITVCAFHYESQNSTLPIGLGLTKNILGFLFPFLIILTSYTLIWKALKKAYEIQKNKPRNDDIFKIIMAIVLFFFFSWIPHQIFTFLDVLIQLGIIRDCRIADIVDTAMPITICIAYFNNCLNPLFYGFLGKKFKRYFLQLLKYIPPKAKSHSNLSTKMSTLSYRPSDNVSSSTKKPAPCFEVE
Outline: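 CHO-K1 cells expressing AGTR1 with β-arrestin2 enzyme-complementation reporter, plated 14-16 h ahead in 1% serum medium, then exposed to compounds for 90 min at 37° C. Chemiluminescence read after 1 h detection. EC50 (agonist) or IC50 (antagonist) from 4-parameter logistic fit; activity as percentage of All maximal effect.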

AGTR1 [2] = molecular target: T1, AGTR1; assay: DiscoveRx IP1 accumulation assay (HTRF), agonist mode, Pathunter CHO-K1 AGTR1 β-arrestin cell line; assay type: cell-based; details: for EC50: read-out: IP-1 EC50
Outline: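 Agonist mode in CHO-K1 AGTR1 β-arrestin cells plated 14-16 h before; compounds at varying concentrations for 90 min at 37° C, IP1 accumulation read by HTRF (D2-conjugate and anti-IP1 cryptate, 20 min room temperature). EC50 from 4-parameter logistic fit; activity given as percentage of maximal AII effect.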

hAT1R [3] = molecular target: T2, hAT1R (Homo sapiens, UniProt P30556); assay: BRET β-arrestin2 biosensor assay, higher receptor expression (hAT1R 5 ng/well), HEK293 cells; assay type: cell-based; details: for EC50: High AT1R Expression
T2 sequence (P30556 1-359): T1 sequence (P30556 1-359)

hAT1R [4] = molecular target: T2, hAT1R; assay: cell-based
hAT1R [5] = molecular target: T2, hAT1R; assay: cell-based; details: agonist mode; for EC50: read-out: BRET P63 EC50
[6] = section of the 42nd table ending at r951, example numbering restarts after the DiscoveRx section, read-out: β-arrestin2 EC50
[7] = Low AT1R Expression, read-out: BRET β-Arrestin2 Low AT1R Expression EC50

SMILES	EC50 (AGTR1 [1])	DiscoveRx β-arrestin2 Ymax (%) (AGTR1 [1])	IP-1 Ymax (%) (AGTR1 [2])	EC50 (AGTR1 [2])	BRET β-Arrestin2 High AT1R Expression Ymax (%) (hAT1R [3])	EC50 (hAT1R [3])	EC50 (hAT1R [4]; [6])	EC50 (hAT1R [5])	BRET β-Arrestin2 Low AT1R Expression Ymax (%) (hAT1R [4]; Low AT1R Expression)	EC50 (hAT1R [4]; [7])	BRET P63 Ymax (hAT1R [5])
CCc1nc2c(C)cc(C)nc2n1Cc1ccc(-c2cc(-c3ccccc3)ccc2-c2nnn[nH]2)nc1 [Example 176, 3-((6-(4-(1H-tetrazol-5-yl)-[1,1′-biphenyl]-3-yl)pyridin-3-yl)methyl)-2-ethyl-5,7-dimethyl-3H-imidazo[4,5-b]pyridine]	31.8 nM	32.0%	9.8%	48.9 nM	79.1%	25.5 nM	30.6 nM	> 100000 nM			
CCc1nc2c(C)cc(C)nc2n1Cc1ccc(-c2cc(Oc3ccccn3)ccc2-c2nnn[nH]2)cc1 [Example 247, 2-Ethyl-5,7-dimethyl-3-((5′-(pyridin-2-yloxy)-2′-(1H-tetrazol-5-yl)-[1,1′-biphenyl]-4-yl)methyl)-3H-imidazo[4,5-b]pyridine]	6.9 nM	30.8%		> 100000 nM	74.4%	13.8 nM	22.7 nM	> 10000 nM			
CCC1=NC2(CCCC2)C(=O)N1Cc1ccc(-c2cc(-c3ccccc3)ccc2-c2nn[nH]n2)cc1 [Example 112, 3-((6′-(2H-tetrazol-5-yl)-[1,1′:3′,1″-terphenyl]-4-yl)methyl)-2-ethyl-1,3-diazaspiro[4.4]non-1-en-4-one]	124 nM	33.4%	7.7%	284 nM	78.5%	30.6 nM		46.8 nM	39.3%	174 nM	8.2%
CCc1nc2c(C)cc(C)nc2n1Cc1ccc(-c2cc(-c3ccccc3)ccc2-c2noc(=S)[nH]2)cc1 [Example 72, 3-(4″-((2-ethyl-5,7-dimethyl-3H-imidazo[4,5-b]pyridin-3-yl)methyl)-[1,1′:3′,1″-terphenyl]-4′-yl)-1,2,4-oxadiazole-5(4H)-thione]	22.6 nM	63.6%	8.5%	92 nM	85.8%	33.2 nM		43 nM	44.4%	58.2 nM	11.8%
CCc1nc2c(C)cc(C)nc2n1Cc1ccc(-c2cc(-c3cccc(OC)c3)ccc2-c2nn[nH]n2)cc1 [Example 20]	4.9 nM	38.7%	9.9%	12.8 nM	85.5%	4.3 nM		10.8 nM	59.5%	12.2 nM	12.0%
CCc1nc2c(C)cc(C)nc2n1Cc1ccc(-c2cc(-c3cc(F)cc(F)c3)ccc2-c2nn[nH]n2)cc1 [Example 53]	2.6 nM	39.4%	5.8%	7.9 nM	90.6%	5.4 nM		> 100000 nM	61.8%	14 nM	
CCCCC1=NC2(CCOC2)C(=O)N1Cc1ccc(-c2cc(-c3ccccc3)ccc2-c2nnn[nH]2)cc1 (single isomer, unassigned) [Example 146]	31.6 nM	34.0%	8.3%	76.2 nM	85.6%	38.2 nM		> 100000 nM	35.0%	52.6 nM	
CCc1nc2c(C)cc(C)nc2n1Cc1ccc(-c2cc(-c3nccs3)ccc2-c2nn[nH]n2)cc1 [Example 56]	58.3 nM	20.8%		> 100000 nM	63.0%	48.9 nM		42.6 nM	14.2%	54 nM	4.0%
CCCCC1=NC2(CCCC2)C(=O)N1Cc1ccc(-c2cc(-c3ccc(C)cc3)ccc2-c2nn[nH]n2)cc1 [Example 122, 2-butyl-3-((4″-methyl-6′-(2H-tetrazol-5-yl)-[1,1′:3′,1″-terphenyl]-4-yl)methyl)-1,3-diazaspiro[4.4]non-1-en-4-one]	16.1 nM	33.8%	5.5%	35.4 nM	94.3%	17.5 nM		> 10000 nM	31.6%	30.8 nM	
CCc1nc2c(C)cc(C)nc2n1Cc1ccc(-c2cc(Oc3ccccc3)ccc2-c2nnn[nH]2)cc1 [Example 204, 2-Ethyl-5,7-dimethyl-3-((5′-phenoxy-2′-(1H-tetrazol-5-yl)-[1, 1′-biphenyl]-4-yl)methyl)-3H-imidazo[4,5-b]pyridine]	26.4 nM	42.4%	14.4%	66.8 nM	85.9%	3.6 nM	9.8 nM	10.7 nM			9.4%
CCc1nc2c(C)cc(C)nc2n1Cc1ccc(-c2cc(-c3cccc(C)c3)ccc2-c2nnn[nH]2)cn1 [Example 177, 2-ethyl-5,7-dimethyl-3-((5-(3′-methyl-4-(1H-tetrazol-5-yl)biphenyl-3-yl)pyridin-2-yl)methyl)-3H-imidazo[4,5-b]pyridine]	11.8 nM	52.2%	22.9%	113 nM	91.8%	4 nM	11.5 nM	36.2 nM			23.8%
CCc1nc2c(C)cc(C)nc2n1Cc1ccc(-c2cc(-c3cccc(C)c3)ccc2-c2nn[nH]n2)cc1 [Example 8]	6 nM	42.2%	6.9%	6 nM	93.0%	4.1 nM		7.7 nM	80.5%	5.4 nM	14.0%
CCc1nc2c(C)cc(C)nc2n1Cc1ccc(-c2cc(-c3ccsn3)ccc2-c2nn[nH]n2)cc1 [Example 57]	16.6 nM	26.3%		> 100000 nM	66.3%	15.2 nM		14.3 nM	8.9%	19.9 nM	5.0%
CCc1nc2c(C)cc(C)nc2n1Cc1ccc(-c2cc(C3CCCCO3)ccc2-c2nn[nH]n2)cc1 (single isomer, unassigned) [Example 78, 2-ethyl-5,7-dimethyl-3-((5′-(tetrahydro-2H-pyran-2-yl)-2′-(2H-tetrazol-5-yl)-[1,1′-biphenyl]-4-yl)methyl)-3H-imidazo[4,5-b]pyridine]	19.9 nM	50.0%	37.8%	79.5 nM	94.3%	15 nM		72.3 nM	85.0%	37.5 nM	36.1%
CCc1nc2c(C)cc(C)nc2n1Cc1ccc(-c2cc(-c3ccccc3O)ccc2-c2nnn[nH]2)cn1 [Example 178]	7.1 nM	75.6%	20.8%	21.5 nM	89.3%	4.8 nM	19.4 nM	25.6 nM			19.6%
CCc1nc2c(C)cc(C)nc2n1Cc1ccc(-c2cc(-c3cc(C)ccn3)ccc2-c2nn[nH]n2)cc1 [Example 64]	6.9 nM	67.8%	30.8%	23.2 nM	92.5%	1.9 nM		2.6 nM	98.7%	3.1 nM	41.3%
CCc1nc2c(C)cc(C)nc2n1Cc1ccc(-c2cc(-c3cccc(C)c3)ccc2C(=O)O)cn1 [Example 195, 3-(6-((2-ethyl-5,7-dimethyl-3H-imidazo[4,5-b]pyridin-3-yl)methyl)pyridin-3-yl)-3′-methylbiphenyl-4-carboxylic acid]	694 nM	77.6%	5.3%	358 nM	87.0%	101 nM	282 nM	264 nM			13.6%
